Laboratory results published in article PMC10979747 (Journal of the American Chemical Society, 2024).
Read-outs that look alike come from different tables or passages of the source. Numbered stars: 1 amine (or outer) side, 2 acyl side, 3 side chain; on linkers, the order of the positions; unused ones are H or OH. Bridge positions count the residues as written; N and C are the ends. Square brackets hold non-standard residues; d marks the D form. Peptide text beside a SMILES is read from it. X1 = C=C(N[*:2])c1nc(-c2nc(-c3nc(C(=O)OC)cs3)ccc2C(=O)[*:1])cs1; NMePhe(4-NO2) = CN[C@@H](Cc1ccc([N+](=O)[O-])cc1)C(=O)O; Tic(7-OH) = O=C(O)[C@@H]1Cc2ccc(O)cc2CN1; X2 = O=C(c1csc([C@H](CO)N[*:1])n1)[*:2]; NMeA = CN[C@@H](C)C(=O)O; Dhb = C/C=C(\N)C(=O)O; Dha = C=C(N)C(=O)O; Sar = CNCC(=O)O

Legend:
TNIK [1] = target: T1, TNIK (Homo sapiens, UniProt Q9UKE5); test: Kinase selectivity profiling (STE-1 kit, ADP-Glo readout): TNIK; type: biochemical; settings: 10 μM thiopeptide
Protocol: (§1) 2.9. Kinase inhibition assays with ADP-Glo
(§2) The ADP-Glo assay system was purchased from Promega. The kinase reaction buffer contained 50 mM Tris (pH 7.5), 10 mM MgCl2 and 0.01% (v/v) triton X-100. […]
(§3) The reactions were stopped by the addition of ADP -Glo reagent (1 volume), and the luminescent signal was developed following the manufacturer’s instructions. […]
(§4) Kinase selectivity profiling. A STE-1 kinase selectivity profiling kit from Promega was utilized to assay the compounds. The experiment was conducted following the manufacturer’s instructions, and the signal was developed using the ADP-Glo assay system as described above. All measurements were performed in triplicate. After background correction, the kinase activities were normalized to a no inhibitor control , and percent remaining activity values were calculated accordingly. […]
Target sequence in this assay (Q9UKE5 whole entry): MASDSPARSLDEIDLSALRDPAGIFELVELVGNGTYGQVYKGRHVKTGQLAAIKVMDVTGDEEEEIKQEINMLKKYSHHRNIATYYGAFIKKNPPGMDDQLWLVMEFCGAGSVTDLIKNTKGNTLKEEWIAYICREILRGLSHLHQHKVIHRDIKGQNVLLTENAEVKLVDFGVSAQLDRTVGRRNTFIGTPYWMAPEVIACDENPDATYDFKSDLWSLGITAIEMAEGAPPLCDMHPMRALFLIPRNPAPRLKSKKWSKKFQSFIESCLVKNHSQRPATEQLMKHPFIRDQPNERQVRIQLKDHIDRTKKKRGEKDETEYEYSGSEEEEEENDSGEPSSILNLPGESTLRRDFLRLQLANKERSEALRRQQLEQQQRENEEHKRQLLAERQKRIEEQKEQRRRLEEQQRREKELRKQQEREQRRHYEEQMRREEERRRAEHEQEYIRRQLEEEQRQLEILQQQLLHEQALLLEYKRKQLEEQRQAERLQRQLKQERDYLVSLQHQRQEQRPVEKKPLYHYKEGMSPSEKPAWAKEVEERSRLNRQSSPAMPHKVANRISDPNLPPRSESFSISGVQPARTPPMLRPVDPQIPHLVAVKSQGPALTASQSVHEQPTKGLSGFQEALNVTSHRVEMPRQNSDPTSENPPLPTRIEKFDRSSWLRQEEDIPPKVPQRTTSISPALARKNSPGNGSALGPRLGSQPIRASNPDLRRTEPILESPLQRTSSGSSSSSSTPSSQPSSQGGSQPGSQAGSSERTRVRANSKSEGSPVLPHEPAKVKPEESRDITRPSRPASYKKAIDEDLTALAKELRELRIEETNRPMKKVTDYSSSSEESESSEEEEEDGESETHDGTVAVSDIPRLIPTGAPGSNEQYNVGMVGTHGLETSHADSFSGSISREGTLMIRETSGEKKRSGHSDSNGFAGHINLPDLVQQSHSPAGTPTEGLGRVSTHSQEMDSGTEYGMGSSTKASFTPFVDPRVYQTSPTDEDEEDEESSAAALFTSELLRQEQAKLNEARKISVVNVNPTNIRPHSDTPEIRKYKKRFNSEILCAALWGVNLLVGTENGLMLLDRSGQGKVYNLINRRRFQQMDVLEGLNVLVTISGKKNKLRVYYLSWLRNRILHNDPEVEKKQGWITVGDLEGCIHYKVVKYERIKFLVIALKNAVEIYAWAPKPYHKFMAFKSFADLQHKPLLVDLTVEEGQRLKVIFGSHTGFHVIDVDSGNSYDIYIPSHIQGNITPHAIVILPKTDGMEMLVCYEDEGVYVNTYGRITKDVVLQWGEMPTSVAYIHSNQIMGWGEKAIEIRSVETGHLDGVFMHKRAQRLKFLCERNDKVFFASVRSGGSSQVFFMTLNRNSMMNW

trypsin = test system: T2, trypsin; test: Stability to agarose-immobilized trypsin (LC/MS); type: in vitro ADME; settings: isolated enzyme trypsin, pH 7.9
T2 construct: purchased Thermo Fisher
Protocol: 2.10. Thiopeptide metabolic stability experiments
Stability to trypsin. To a solution of the analyte thiopeptide (15 µM) and the internal standard peptide (5 µM NH2-PEG5-wstndwdtnd-PEG5-CONH2;ref 16 lower case encoding is for D-amino acids; synthesized using the standard Fmoc SPPS techniques) in digestion buffer [50 mM tris, 100 mM NaCl, 10 mM EDTA, pH 7.9] was added agarose -immobilized TPCK-treated trypsin (Thermo Fisher; 1 µL of resin slurry; 100 µL final reaction volume ) that was previously washed with digestion buffer thrice. The mixture was agitated at 22 °C, and at various timepoints (0.5, 1, 2, 4, and 6 h) aliquots were withdrawn and quenched with 14 volumes of water/acetonitrile mixture [30: 70 (v/v) water: acetonitr ile with 0.1% (v/v) TFA]. […]

in vitro = settings: buffer or solvent, pH 7.5
Protocol: (§5) Stability to glutathione. To a freshly prepared solution of glutathione (5 mM) in stability
(§6) buffer [50 mM HEPES (pH 7.5), 100 mM NaCl] was added a solution of analyte (1.5 mM
(§7) thiopeptide in DMSO; f. c.: 10 µM). The contents were mixed and transferred to a 37 °C
(§8) thermostat. At various time points (0.5, 1, 2, 4, 6, and 10 h) aliquots were withdrawn and
(§9) quenched with 2 volumes of methanol containing 30 mM iodoacetamide. The samples were
(§10) analyzed by LC/MS (0.3 µL; section 2.6) using method 3. Areas under the peak curve for all
(§11) thiopeptide-derived products in the sample (TIC chromatograms) were used to calculate
(§12) fractions of intact analyte. Thiopeptide half-life values were obtained from non-linear
(§13) regression (scipy)15 of experimentally measured values to the pseudo-first order
(§14) approximation for the reaction kinetics which can be used since [glutathione] >> [analyte].

[2] = test system: HCT116 colon carcinoma cells; test: Cell viability assay (Cell Counting Kit-8); settings: for cytotoxicity (cell viability) after 24 h incubation: 10 μM, thiopeptide acetate salts
TNIK [3] = target: T1, TNIK; test: Surface plasmon resonance, binding of thiopeptides to immobilized biotinylated TNIK (single-cycle, then multicycle kinetics); design: Biotinylated TNIK (kinase domain, amino acids 1-314;); biotin (biotinylated protein); purchased Carna Biosciences (Kobe, Japan)
Protocol: 2.8. Surface plasmon resonance
In the initial experiment, binding affinities between the thiopeptides and TNIK were measured with a Biacore T200 instrument (GE Healthcare) at 25 °C. The assay buffer contained 50 mM Tris (pH 7.5), 150 mM NaCl, 10 mM MgCl2, 0.01% (v/v) tween-20 and 0.1% (v/v) DMSO. For wTP3, the assay buffer additionally contained ATP (f.c.: 1 mM).
Biotinylated TNIK was immobilized on a Biacore CAP chip (GE Healthcare) to a surface density of 950-1200 response units following the standard immobilization protocols provided by the manufacturer. The interaction sensorgrams were measured as single-cycle kinetics performed with five concentrations of the ligand sequentially flown over the chip at a flow rate of 15 μL/min allowing for 20 or 30 s association and 70 or 60 s for dissociation between the steps. The final dissociation step was allowed to proceed for 180 s. […]
was repeated in triplicate on a Biacore 8K instrument (GE Healthcare) using a multi cycle kinetics format. The experimental details were as above, except ATP was not added to the buffer for wTP3. Kinetic parameters and affinities of the interaction were determined assuming the standard 1:1 binding model using the Biacore software (GE Healthcare).
Reported KD values were calculated from the average measured association and dissociation rates (Table S5).
Target sequence in this assay (Q9UKE5 1-314): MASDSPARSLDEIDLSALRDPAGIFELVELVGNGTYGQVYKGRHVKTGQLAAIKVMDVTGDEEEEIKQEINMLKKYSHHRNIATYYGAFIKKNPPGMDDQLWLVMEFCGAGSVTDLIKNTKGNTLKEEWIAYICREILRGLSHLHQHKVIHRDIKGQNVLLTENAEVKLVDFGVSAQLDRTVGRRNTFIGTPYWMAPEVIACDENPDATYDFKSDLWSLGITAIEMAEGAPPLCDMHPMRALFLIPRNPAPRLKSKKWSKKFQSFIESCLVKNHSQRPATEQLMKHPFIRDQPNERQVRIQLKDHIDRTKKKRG

TNIK [4] = target: T1, TNIK; test: ADP-Glo kinase inhibition assay; type: biochemical; design: Biotinylated TNIK (kinase domain, amino acids 1-314;); biotin (biotinylated protein); purchased Carna Biosciences (Kobe, Japan); settings: 0.5 nM TNIK, 25 µM ATP, 15 µM MSTtide, 4-parameter logistic fit; for IC50: read-out: ADP-Glo IC50 against TNIK
Protocol: as §1
Target sequence in this assay (Q9UKE5 1-314): as above
The ADP-Glo assay system was purchased from Promega. The kinase reaction buffer contained 50 mM Tris (pH 7.5), 10 mM MgCl2 and 0.01% (v/v) triton X-100. TNIK (1.25 nM) was incubated with various concentrations of analyte inhibitors in kinase reaction buffer at 25 °C for 10 min. After, the reactions were initiated by the addition of ATP and substrate […]
peptide (MSTtide, sequence: NH2-NKGYNTLRRKK-CONH2;ref 14 synthesized using the standard Fmoc SPPS techniques). The final mixtures containing 0.5 nM TNIK, 25 µM ATP, 15 µM MSTtide and variable concentration of the inhibitors were incubated at 25 °C for 30 min. The reactions were stopped by the addition of ADP -Glo reagent (1 volume), and the luminescent signal was developed following the manufacturer’s instructions. Luminesce was recorded on a Tecan M1000 PRO microplate reader (Tecan Group) with 1 s acquisition time and no signal attenuation. TNIK kinase activity was normalized to a no inhibitor control, and […]
values to the standard 4-parameter logistic curve model. […]

MINK = MINK (Homo sapiens, UniProt Q8N4C8); test: Kinase selectivity profiling (STE-1 kit, ADP-Glo readout): MINK; type: biochemical; settings: 1 μM thiopeptide
Chain of MINK (Q8N4C8 whole entry): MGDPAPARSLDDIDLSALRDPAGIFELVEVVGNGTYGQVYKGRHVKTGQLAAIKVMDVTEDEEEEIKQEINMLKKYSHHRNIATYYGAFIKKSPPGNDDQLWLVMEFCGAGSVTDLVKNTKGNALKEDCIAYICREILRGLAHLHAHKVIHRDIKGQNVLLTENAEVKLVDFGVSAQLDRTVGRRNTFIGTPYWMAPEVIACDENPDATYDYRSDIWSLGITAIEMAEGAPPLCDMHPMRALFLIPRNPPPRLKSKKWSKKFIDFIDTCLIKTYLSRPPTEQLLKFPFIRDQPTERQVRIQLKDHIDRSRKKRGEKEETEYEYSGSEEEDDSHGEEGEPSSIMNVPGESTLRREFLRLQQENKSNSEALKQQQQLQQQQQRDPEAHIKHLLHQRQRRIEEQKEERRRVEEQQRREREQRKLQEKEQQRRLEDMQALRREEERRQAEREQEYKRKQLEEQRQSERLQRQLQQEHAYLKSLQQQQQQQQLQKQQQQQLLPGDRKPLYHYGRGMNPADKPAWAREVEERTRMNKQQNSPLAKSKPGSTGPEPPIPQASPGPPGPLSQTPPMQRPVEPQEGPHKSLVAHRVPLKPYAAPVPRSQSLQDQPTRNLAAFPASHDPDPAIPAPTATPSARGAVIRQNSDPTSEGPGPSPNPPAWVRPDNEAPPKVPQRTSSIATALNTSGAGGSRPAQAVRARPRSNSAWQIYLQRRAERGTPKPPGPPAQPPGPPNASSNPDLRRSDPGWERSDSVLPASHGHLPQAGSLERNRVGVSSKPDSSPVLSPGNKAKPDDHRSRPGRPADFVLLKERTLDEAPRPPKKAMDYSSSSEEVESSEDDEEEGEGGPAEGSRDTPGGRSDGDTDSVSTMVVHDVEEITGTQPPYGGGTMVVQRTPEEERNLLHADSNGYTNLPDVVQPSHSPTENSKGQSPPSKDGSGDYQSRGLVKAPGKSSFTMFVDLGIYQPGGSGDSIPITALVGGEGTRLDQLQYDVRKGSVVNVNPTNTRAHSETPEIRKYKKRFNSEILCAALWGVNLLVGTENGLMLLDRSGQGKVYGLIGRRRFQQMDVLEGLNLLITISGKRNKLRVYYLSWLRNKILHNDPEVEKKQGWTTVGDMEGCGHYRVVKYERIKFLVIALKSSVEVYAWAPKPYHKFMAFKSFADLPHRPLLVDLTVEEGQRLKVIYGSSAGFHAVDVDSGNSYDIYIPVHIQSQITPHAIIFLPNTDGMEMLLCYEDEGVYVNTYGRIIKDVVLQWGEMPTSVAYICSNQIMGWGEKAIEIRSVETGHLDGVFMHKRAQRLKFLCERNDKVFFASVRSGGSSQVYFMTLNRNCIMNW
Protocol: as §1, §2, §3, §4

[5] = Stability to glutathione (LC/MS); settings: 5 mM glutathione in HEPES buffer, pH 7.5
Protocol: as §5, §6, §7, §8, §9, §10, §11, §12, §13, §14

[6] = Serum stability assay (LC/MS against internal standard); settings: human, human serum diluted in TBS, pH 7.6
Protocol: The ratio of areas under the peak for the intact analyte over the internal standard (EIC
chromatograms generated with m/z ± 3 cutoff values) were used to calculate the extent of
analyte degradation. Thiopeptide half-life values were obtained from non-linear regression
(scipy)15 of experimentally measured values to the standard first order kinetic decomposition
Serum stability assay. To a solution of analyte thiopeptide (13.3 µM) and the internal
standard peptide in TBS [5 µM; buffer: 50 mM Tris (pH 7.6), 150 mM NaCl] human serum
(0.33 volumes; Cosmo Bio) was added on ice. The solutions were mixed well and transferred to a 37 °C thermostat. At various timepoints, aliquots were withdrawn and quenched with 2.3 volumes of methanol containing 30 mM iodoacetamide. The mixtures were incubated on
ice for 15 min and then at 25 °C for 30 min. The samples were then centrifuged (15300 g for
5 min), and the supernatant (0.5 µL) was analyzed by LC/MS (section 2.5) using method 6
1 – 10 min 1 – 81% B, linear ramp
Data analysis was conducted as for the trypsin digestion assays.

[7] = human serum (0.33 volumes; Cosmo Bio) added to thiopeptide and internal standard in TBS; settings: 37 °C, up to various timepoints, time axis of Fig. 5c runs to 30 h
[8] = test system: agarose-immobilized TPCK-treated trypsin (Thermo Fisher); test: agarose-immobilized TPCK-treated trypsin in digestion buffer [50 mM tris, 100 mM NaCl, 10 mM EDTA, pH 7.9]; settings: 22 °C, up to 6 h
[9] = SPR kinetic data, binding to immobilized TNIK
[10] = average from three multicycle kinetic experiments, 1:1 binding model, 25 °C
[11] = SPR kinetic data, binding to immobilized TNIK, read-out: KD

| half-life at 15 µM (trypsin) [h] | koff (TNIK [3]; [9]) [s⁻¹] | kon (TNIK [3]; [9]) [M⁻¹ s⁻¹] | IC50 (TNIK [4]) [nM] | Kd (TNIK [3]; [11]) [nM] | Compound | half-life at 10 µM (in vitro) [h] | cytotoxicity (cell viability) after 24 h incubation [2] | KD (binding affinity to TNIK) (TNIK [3]; [10]) | fragment found [7] | further results |
| --- | --- | --- | --- | --- | --- | --- | --- | --- | --- | --- |
| 1.4 ± 0.1 | 0.0216 | 4.78e+06 | 150 ± 10 | 4.5 | C=C1NC(=O)[C@H](CC(C)C)NC(=O)[C@H](CC(N)=O)NC(=O)[C@H](CO)NC(=O)[C@H](CCCNC(=N)N)NC(=O)[C@H](CCCNC(=N)N)NC(=O)CN(C)C(=O)[C@H](C)N(C)C(=O)[C@H](CC(C)C)NC(=O)[C@H](CCCNC(=N)N)NC(=O)[C@@H]2CCCN2C(=O)[C@@H]2Cc3ccc(O)cc3CN2C(=O)[C@H]([C@@H](C)O)NC(=O)[C@H](Cc2c[nH]c3ccccc23)NC(=O)c2ccc(-c3nc(C(=O)OC)cs3)nc2-c2csc1n2 [hTP15] (WT[Tic(7-OH)]PRL[NMeA][Sar]RRSNL; linker N-C via X1) | 101 ± 7 |  | single-digit |  | inhibition of MINK (MINK): 60%; ADP-Glo IC50 against TNIK (TNIK [4]): sub-μM |
| > 100 | 0.0597 | 308000 | 1270 ± 90 | 194 | C=C1NC(=O)CN(C)C(=O)[C@H](CC(N)=O)NC(=O)c2csc(n2)[C@H](CO)NC(=O)[C@H](Cc2c[nH]c3ccccc23)NC(=O)[C@H](Cc2c[nH]c3ccccc23)NC(=O)c2ccc(-c3nc(C(=O)OC)cs3)nc2-c2csc(n2)C(=C)NC(=O)[C@H](C)NC(=O)/C(=C/C)NC(=O)[C@@H]2Cc3ccc(O)cc3CN2C(=O)[C@H](Cc2ccc([N+](=O)[O-])cc2)N(C)C(=O)CN(C)C(=O)C(=C)NC1=O [wTP12] (WW[X2]N[Sar][Dha][Dha][Sar][NMePhe(4-NO2)][Tic(7-OH)][Dhb]A; linker N-C via X1) |  | inactive |  |  | half-life at 10 µM [5]: 16.4 ± 2 h; half-life at 10 µM [6]: 56.3 ± 6.4 h |
|  |  |  |  |  | WLRTgRaSTfTG |  |  |  | demethylated but otherwise undigested thiopeptides |  |
|  |  |  |  |  | WSCNgSSgfyTA |  |  |  | demethylated but otherwise undigested thiopeptides | not cleaved [8]: did not degrade (6 h); completely stable; τ1/2 >100 h |

| Compound | half-life at 15 µM (trypsin) [h] | koff (TNIK [3]; [9]) [s⁻¹] | kon (TNIK [3]; [9]) [M⁻¹ s⁻¹] | IC50 (TNIK [4]) [nM] | Kd (TNIK [3]; [11]) [nM] | half-life at 10 µM (in vitro) [h] | cytotoxicity (cell viability) after 24 h incubation [2] | KD (binding affinity to TNIK) (TNIK [3]; [10]) | fragment found [7] | further results |
| --- | --- | --- | --- | --- | --- | --- | --- | --- | --- | --- |
| C=C1NC(=O)[C@H](C)N(C)C(=O)[C@H](CCCNC(=N)N)NC(=O)CN(C)C(=O)/C(=C/C)NC(=O)[C@H](CCCNC(=N)N)NC(=O)[C@H](CC(C)C)NC(=O)[C@H](Cc2c[nH]c3ccccc23)NC(=O)[C@H](Cc2c[nH]c3ccccc23)NC(=O)c2ccc(-c3nc(C(=O)OC)cs3)nc2-c2csc(n2)C(=C)NC(=O)CNC(=O)/C(=C/C)NC(=O)[C@H](Cc2ccc([N+](=O)[O-])cc2)N(C)C(=O)[C@H]([C@@H](C)O)NC1=O [hTP8] (WWLR[Dhb][Sar]R[NMeA][Dha]T[NMePhe(4-NO2)][Dhb]G; linker N-C via X1) | 4.9 ± 0.6 | 0.00256 | 1.21e+06 | 1180 ± 160 |  | 6.4 ± 0.1 | more cytotoxic than a small molecule control, NCB0846 | single-digit |  | suppression of TNIK activity (TNIK [1]): 94%; concentrations at which strongly cytotoxic ([2]; dose-dependent assay): above 5 µM; IC50 ([2]; read-out: IC50, cell viability, dose-dependent 48 h incubation): 7200 nM; Kd (TNIK [3]; average from three multicycle kinetic experiments, 1:1 binding model, 25 °C, read-out: KD (binding affinity to TNIK)): 2.1 nM |
